This is an account of results in patent publication US8926944B2, “Radiolabeled prostate specific membrane antigen inhibitors” (Molecular Insight Pharmaceuticals, priority 2011, dated 2015).

The test system of series [1] is LNCap tumor cells. The experiment in a line: tissue biodistribution study in LNCap xenograft mice. In kind it is in vivo. As to conditions: 177Lu complex; for concentration in kidneys versus LNCap tumor cells: 4 hours post administration; for concentration in LNCap tumor cells versus kidney: 24 hours and 96 hours post administration; for change of concentration in kidney: later time intervals (24 and 96 hours). The procedure: FIG. 2 is a graph of the tissue biodistribution of a ^111In analog of the compound of Example 3, in LNCap Xenograft mice.
FIGS. 1A and 1B illustrate results of a bio-distribution study in LNCap xenograft mice of a GUG-DOTA-^177Lu complex (compound (A)) and a GUL-DOTA-^177Lu complex (compound (B)) according to Formula II.
In contrast, the inventive compounds accumulate within tumor cells with only a slight decrease in intratumoral concentration observed after 96 hours.
FIG. 2 illustrates results of a bio-distribution study in LNCap xenograft mice using a GUL-DOTA-^111In complex and a hydrophobic aminohexanoic acid linker. […] The inventors hypothesize that the low biodistribution of MIP-1450 LNCap tumor cells may be due to this compounds low affinity for PSMA expressed on the surface of LNCap cells. As stated above, it was unexpectedly that presence of carboxylic acid groups in the linker region increased affinity of Formula I compounds for PSMA. This increase in binding affinity is due, at least in part to additional cooperative binding interactions of the free carboxylic acid groups with amino acid residues of PSMA. Illustrative of Formula I compound-radionuclide complexes that have one or more carboxylic acid groups as part of the linker group include without limitation the following compounds: […]

In series [2] the target is T1, PSMA (Homo sapiens, UniProt Q04609).
T1 construct: host or cells: LNCaP human prostate cancer cells
T1 sequence (Q04609 whole entry): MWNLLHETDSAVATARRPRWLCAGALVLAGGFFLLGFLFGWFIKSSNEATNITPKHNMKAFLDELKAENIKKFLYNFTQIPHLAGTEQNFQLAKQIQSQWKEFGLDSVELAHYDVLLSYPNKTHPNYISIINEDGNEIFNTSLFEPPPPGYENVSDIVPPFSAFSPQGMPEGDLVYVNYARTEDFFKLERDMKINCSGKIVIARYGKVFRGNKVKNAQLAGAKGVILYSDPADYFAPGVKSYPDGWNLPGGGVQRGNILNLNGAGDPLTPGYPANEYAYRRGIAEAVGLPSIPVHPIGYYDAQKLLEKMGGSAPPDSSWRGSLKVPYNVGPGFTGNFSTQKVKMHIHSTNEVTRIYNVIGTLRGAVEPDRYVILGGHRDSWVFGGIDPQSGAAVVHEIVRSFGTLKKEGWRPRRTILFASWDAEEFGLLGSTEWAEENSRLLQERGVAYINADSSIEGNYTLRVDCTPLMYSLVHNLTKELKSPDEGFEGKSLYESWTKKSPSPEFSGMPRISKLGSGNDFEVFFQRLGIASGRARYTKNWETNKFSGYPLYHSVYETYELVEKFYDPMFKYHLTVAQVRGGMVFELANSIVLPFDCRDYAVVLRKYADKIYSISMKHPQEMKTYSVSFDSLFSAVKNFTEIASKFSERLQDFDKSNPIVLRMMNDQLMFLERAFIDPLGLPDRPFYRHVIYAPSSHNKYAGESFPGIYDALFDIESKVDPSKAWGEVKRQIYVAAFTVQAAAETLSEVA
The experiment in a line: competitive binding assay against 123I-DCIT in PSMA positive LNCaP cells. The conditions noted are these: Lu complexes; competition with 3 nM 123I DCIT on LNCaP cells, 1 hour at room temperature. As to the method: The compounds of Formula I or Formula II were screened in a human prostate cancer cell binding assay using PSMA positive (+), LnCap cells.
Briefly, LNCaP and PC3 human prostate cancer cells were obtained from American Type Culture Collection, Rockville, Md. LNCaP cells were maintained in RPMI-1640 medium supplemented with 10% fetal bovine serum (FBS). Binding of the radiolabeled compound and competition with cold derivatives to LNCaP cells was performed according to published methods. Cells were plated in 12-well plates at approximately 4×10^5 cells/well and incubated for 48 hours in a humidified incubator at 37° C./5% carbon dioxide prior to addition of compound. Solutions of the Formula I or Formula II compounds were prepared and diluted in serum-free cell culture medium containing 0.5% bovine serum albumin (BSA) in combination with 3 nM ^123I DCIT (known inhibitor). Total binding was determined by incubating ^123I-DCIT without test compound. Plates were incubated at room temperature for 1 hour. Cells were removed from the plates and transferred to eppendorff tubes. Samples were microcentrifuged for 15 seconds at 10K×g. The medium was aspirated and the pellet was washed twice by dispersal in fresh assay medium followed by microcentrifugation. Cell binding of ^123I DCIT was determined by counting the cell pellet in an automated gamma counter. Nonspecific binding was determined as the counts associated with the cells after incubating with 2 uM nonradiolabeled compound or 2-phosphonomethyl-pentanedioic acid (PMPA). Table 3 illustrates the IC50 values of representative Formula II complexes.

In the case of `O=C(O)CC[C@H](NC(=O)N[C@@H](CCCCNC(=O)[C@H](Cc1ccc2ccccc2c1)NC(=O)CCCCCNC(=S)Nc1ccc(CC2CN(CC(=O)O)CCN(CC(=O)O)CCN(CC(=O)O)CCN2CC(=O)O)cc1)C(=O)O)C(=O)O.[177Lu]` (stereo partly drawn) [B, ^177Lu-complex of (10S,17S,21S)-10-(naphthalen-2-ylmethyl)-8,11,19-trioxo-1-((4-((1,4,7,10-tetrakis(carboxymethyl)-1,4,7,10-tetraazacyclododecan-2-yl)methyl)phenyl)amino)-1-thioxo-2,9,12,18,20-pentaazatricosane-17,21,23-tricarboxylic acid], in series [1], the “concentration in kidneys versus LNCap tumor cells” value is on record as “concentrate to a greater extent in the kidneys than LNCap tumor cells”, the “concentration in LNCap tumor cells versus kidney” value is “the concentration is greater in LNCap tumor cells than kidney” and the “change of concentration in kidney” value is reported as “significant reduction”.
For the molecule “(3S,7S,14S,17S)-14-benzyl-5,13,16-trioxo-17-(6-(3-(4-((S)-1,4,7,10-tetrakis(carboxymethyl)-1,4,7,10-tetraazacyclododecan-2-yl)methyl)phenyl)thioureido)hexanamido)-4,6,12,15-tetraazanonadecane-1,3,7,19-tetracarboxylate Lu complex [Lu-MIP-1531]”, the IC50 in series [2] was 28 nM.
The same measure, in the same setting: under “(10S,13S,20S,24S)-13-(2-carboxyethyl)-10-(4-fluorobenzyl)-8,11,14,22-tetraoxo-1-((4-((1,4,7,10-tetrakis(carboxymethyl)-1,4,7,10-tetraazacyclododecan-2-yl)methyl)phenyl)amino)-1-thioxo-2,9,12,15,21,23-hexaazahexacosane-20,24,26-tricarboxylate Lu complex [Lu-MIP-1550]” stands 22 nM; under “(10S,17S,21S)-10-(2-carboxyethyl)-8,11,19-trioxo-1-((4-((1,4,7,10-tetrakis(carboxymethyl)-1,4,7,10-tetraazacyclododecan-2-yl)methyl)phenyl)amino)-1-thioxo-2,9,12,18,20-pentaazatricosane-17,21,23-tricarboxylate Lu complex [Lu-MIP-1523]”, 54 nM.
With “(10S,17S,21S)-10-(4-fluorobenzyl)-8,11,19-trioxo-1-((4-((1,4,7,10-tetrakis(carboxymethyl)-1,4,7,10-tetraazacyclododecan-2-yl)methyl)phenyl)amino)-1-thioxo-2,9,12,18,20-pentaazatricosane-17,21,23-tricarboxylate Lu complex [Lu-MIP-1546]”, in series [2], the IC50 came out at 15 nM.
The same measure, in the same setting: under “(10S,17S,21S)-10-(naphthalen-2-ylmethyl)-8,11,19-trioxo-1-((4-((1,4,7,10-tetrakis(carboxymethyl)-1,4,7,10-tetraazacyclododecan-2-yl)methyl)phenyl)amino)-1-thioxo-2,9,12,18,20-pentaazatricosane-17,21,23-tricarboxylate Lu complex [Lu-MIP-1545]” stands 10 nM; under “(10S,17S,21S)-10-benzyl-8,11,19-trioxo-1-((4-((1,4,7,10-tetrakis(carboxymethyl)-1,4,7,10-tetraazacyclododecan-2-yl)methyl)phenyl)amino)-1-thioxo-2,9,12,18,20-pentaazatricosane-17,21,23-tricarboxylate-Lu complex [Lu-MIP-1530]”, 21 nM.
Still for that read-out and setting: under “(11S,16S,20S)-11-(2-carboxyethyl)-10,13,18-trioxo-1-((4-((1,4,7,10-tetrakis(carboxymethyl)-1,4,7,10-tetraazacyclododecan-2-yl)methyl)phenyl)amino)-1-thioxo-2,9,12,17,19-pentaazadocosane-16,20,22-tricarboxylate Lu complex [Lu-MIP-1519]” stands 12 nM.
As for “(11S,16S,20S)-11-benzyl-10,13,18-trioxo-1-((4-((1,4,7,10-tetrakis(carboxymethyl)-1,4,7,10-tetraazacyclododecan-2-yl)methyl)phenyl)amino)-1-thioxo-2,9,12,17,19-pentaazadocosane-16,20,22-tricarboxylate Lu complex [Lu-MIP-1548]”, the IC50 in series [2] stood at 77 nM.
For the molecule “(13S,17S)-10,15-dioxo-1-((4-((1,4,7,10-tetrakis(carboxymethyl)-1,4,7,10-tetraazacyclododecan-2-yl)methyl)phenyl)amino)-1-thioxo-2,9,14,16-tetraazanonadecane-13,17,19-tricarboxylate Lu complex [Lu-MIP-1526]”, in series [2], the IC50 was 78 nM.
“(16S,20S)-10,18-dioxo-1-((4-((1,4,7,10-tetrakis(carboxymethyl)-1,4,7,10-tetraazacyclododecan-2-yl)methyl)phenyl)amino)-1-thioxo-2,11,17,19-tetraazadocosane-16,20,22-tricarboxylate Lu complex [Lu-MIP-1512]”: the IC50 in series [2] was 23 nM.
Regarding “^177Lu-complex of (11S,16S,20S)-11-(2-carboxyethyl)-10,13,18-trioxo-1-((4-((1,4,7,10-tetrakis(carboxymethyl)-1,4,7,10-tetraazacyclododecan-2-yl)methyl)phenyl)amino)-1-thioxo-2,9,12,17,19-pentaazadocosane-16,20,22-tricarboxylate”, in series [1], the “concentration in kidneys versus LNCap tumor cells” value was “concentrate to a greater extent in the kidneys than LNCap tumor cells”, the “concentration in LNCap tumor cells versus kidney” value is given as “the concentration is greater in LNCap tumor cells than kidney” and the “change of concentration in kidney” value was “significant reduction”.
